Source: patent US10301292B2, “Bicyclic compound” (Takeda Pharmaceutical Company Limited, priority 2014, dated 2019)

Assays:
human ACC1 = target: T1, human ACC1 (Homo sapiens, UniProt Q13085); assay: Measurement of ACC1 inhibitory activity (Malonyl-CoA production, RapidFire-mass spectrometry); assay type: biochemical; conditions: 10 μM of the test compound, recombinant human ACC1; for inhibition at 10 µM: read-out: ACC1 inhibitory rate (%) at 10 μM
T1 construct: His tag (from vector pFAST-BacHTc; protein captured on Ni-NTA) (N); made in house; host or cells: SF-9 insect cells, recombinant baculovirus BAC-ACC1
Procedure: (1) Cloning of Human ACC1 Gene and Preparation of Recombinant Baculovirus
Human ACC1 gene was cloned by PCR using a human liver cDNA library (Clontech) as a template and Primer 1 and Primer 2 shown below. Primer 1 and Primer 2 were prepared by adding SalI, NotI restriction enzyme recognition sequences based on the information of the base sequence of human ACC1 gene (Genbank Accession U19822).
PCR was performed using Pyrobest DNA polymerase (TAKARA BIO INC.). The obtained PCR product was cloned to pT7 Blue vector (Novagen) and after confirmation of the base sequence, digested with restriction enzymes SalI and XbaI. The obtained DNA fragment was inserted into pFAST-BacHTc (Invitrogen) digested with restriction enzymes SalI and XbaI to give expression plasmid ACC1/pFAST-BacHTc.
Using the expression plasmid ACC1/pFAST-BacHTc and BAC-TO-BAC Baculovirus Expression System (Invitrogen), virus stock BAC-ACC1 of recombinant Baculovirus was prepared.
(2) Preparation of ACC1 Protein
SF-9 cells (Invitrogen) were inoculated to a medium (10 L) for insect cells (Sf-900IISFM medium (Invitrogen) containing 5% fetal bovine serum (Trace), 50 mg/L Gentamicin (Wako Pure Chemical Industries, Ltd.), 0.1% Pluronic F-68 (Invitrogen)) at 1.0×10^6 cells/mL, and cultured with shaking in Wave Bioreactor (GE Healthcare) at 27° C., 20 rpm, rocking angle 10°, oxygen concentration 30%.
On day 2 of the culture, recombinant Baculovirus BAC-ACC1 was added, and the cells were cultured for 3 days. The culture medium was centrifuged at 4000×g for 10 min to give virus-infected cells. The cells were washed with phosphate buffered saline (Invitrogen) and centrifuged under the same conditions. The obtained cells were cryopreserved at −80° C.
The cryopreserved cells were thawed in ice and suspended in 800 mL of 25 mM HEPES buffer (pH 7.5) containing 10% Glycerol, 0.3 M NaCl, 1 mM EDTA, 25 mM Sodium β-Glycerophosphate and 1 mM Sodium Orthovanadate, and supplemented with Complete Protease Inhibitor (Roche). The obtained suspension was homogenized two times in a polytron homogenizer (Kinematica) at 20,000 rpm for 20 sec. The obtained cell disruption solution was clarified by centrifugation at 186,000×g for 60 min and the supernatant was passed through Ni-NTA Superflow Cartridges (5 mL) (QUIAGEN). Furthermore, it was washed with 25 mM HEPES buffer (pH 7.5) containing 20 mM Imidazole, 0.3 M NaCl, and eluted with 25 mM HEPES buffer (pH 7.5) containing 250 mM Imidazol, 0.3 M NaCl. The eluate was concentrated by Amicon Ultra-15 (Nihon Millipore K.K.) having a fraction molecular weight of 50K. The obtained concentrate was subjected to gel filtration with 50 mM HEPES buffer (pH 7.5) containing 10 mM MgCl2, 2 mM dithiothreitol, 10 mM tripotassium citrate, 0.3 M NaCl by using HiLoad 26/60 Superdex200 prep grade gel filtration column (GE Healthcare) to give ACC1. The obtained ACC1 was cryopreserved at −80° C.
(3) Measurement of ACC1 Inhibitory Activity
ACC1 obtained in the above-mentioned (2) was diluted with an enzyme reaction buffer (50 mM HEPES (pH 7.5), 10 mM MgCl2, 10 mM Tripottasium Citrate, 2 mM Dithiothreitol, 0.001% Fatty acid free BSA) to a concentration of 0.2 μg/ml, and the mixture was added to each well of a 384 well assay plate by 10 μl. A test compound dissolved in dimethyl sulfoxide (DMSO) was diluted with an enzyme reaction buffer and the resulting solution (5 μl) was added to each well. The mixture was incubated at room temperature for 60 min. Then, a substrate solution (50 mM KHCO3, 200 μM ATP, 200 μM Acetyl-CoA, 5 μl) was added to each well, and the mixture was reacted at room temperature for 30 min. The reaction was quenched by adding a reaction quenching liquid (1.3% formic acid, 0.2 μM Malonyl-^13C3-CoA) by 60 μL each to the obtained reaction mixtures (test compound addition group).
In addition, a reaction was performed in the same manner as above and without adding the test compound (test compound non-addition group). […]

HCT116 cells = assay: Growth inhibitory activity on HCT116 cell (CellTiter-Glo); assay type: cell-based; conditions: table head: 10 μM (text b2498: 1 μM), 3 days incubation; for inhibition at 10 µM: Homo sapiens, HCT-116, 72 h, read-out: HCT116 cell proliferation inhibitory rate (%) at 10 μM
Procedure: The growth inhibitory activity of the compound on HCT116 cell was evaluated by the following method.
HCT116 cells were seeded in a 384 well blackplate at 900 cells/30 μL/well, and maintained in an RPMI medium (Wako)) containing an assay medium (2% fetal bovine serum, 50 Unit/mL penicillin, 50 μg/mL streptomycin (Invitrogen). The next day, a test compound dissolved in dimethyl sulfoxide (DMSO) was diluted with the assay medium, and the obtained compound solution was added by 10 μL to each well of a plate containing HCT116 cells and incubated at 37° C., 5% CO2 (test compound addition group).
A similar reaction was performed without adding a test compound (test compound non-addition group).
Furthermore, a similar reaction was performed under the conditions without adding HCT116 cell and a test compound (control group).
After 3 days, 20 μL of a CellTiter-Glo reagent (Promega KK) was added to the well, and the mixture was stirred for 10 min. Thereafter, the luminescence value of each well was measured by the EnVision™ multilabel counter (Perkin Elmer Inc.).
The HCT116 cell proliferation inhibitory rate (%) of the test compound was determined by the following calculation formula. (1−(luminescence of test compound addition group−luminescence of control group)÷(luminescence of test compound nonaddition group−luminescence of control group))×100

| inhibition at 10 µM (human ACC1) [%] | ACC1 inhibitory rate (%) at 10 μM (human ACC1; 10 µM) [%] | SMILES | inhibition at 10 µM (HCT116 cells) [%] | HCT116 cell proliferation inhibitory rate (%) at 10 μM (HCT116 cells) [%] |
| --- | --- | --- | --- | --- |
| 97 |  | CC(=O)NC(C)C1CCc2nc(-c3ccc(Oc4cccc(OCC5CC5)c4)cc3)oc2C1 (centres unmarked) [Example 95, N-(1-(2-(4-(3-(cyclopropylmethoxy)phenoxy)phenyl)-4,5,6,7-tetrahydro-1,3-benzoxazol-6-yl)ethyl)acetamide] | 11 |  |
|  | 96 | CC(=O)NC(C)C1CCc2nc(-c3ccc(Oc4cccc(OCC5CC5)c4)cc3)oc2C1 (centres unmarked) [Example 95b, N-(1-(2-(4-(3-(cyclopropylmethoxy)phenoxy)phenyl)-4,5,6,7-tetrahydro-1,3-benzoxazol-6-yl)ethyl)acetamide] |  | 20 |
| 100 |  | CC(=O)NC(C)c1ccc2nc(-c3ccc(Oc4cccc(OCC5CC5)c4)nn3)oc2c1 (centres unmarked) [Example 96, N-(1-(2-(6-(3-(cyclopropylmethoxy)phenoxy)pyridazin-3-yl)-1,3-benzoxazol-6-yl)ethyl)acetamide] | 23 |  |
| 92 |  | CC(=O)NC(C)c1ccc2nc(-c3cnc(Oc4cccc(OCC5CC5)c4)cc3C)oc2c1 (centres unmarked) [Example 97, N-(1-(2-(6-(3-(cyclopropylmethoxy)phenoxy)-4-methylpyridin-3-yl)-1,3-benzoxazol-6-yl)ethyl)acetamide] | 22 |  |
| 98 |  | C[C@H](NC(N)=O)c1ccc2nc(-c3ccc(Oc4cccc(OCC5CC5)c4)nc3)oc2c1 [Example 98b, 1-((1S)-1-(2-(6-(3-(cyclopropylmethoxy)phenoxy)pyridin-3-yl)-1,3-benzoxazol-6-yl)ethyl)urea] | 47 |  |
| 98 |  | COC(=O)NC(C)c1ccc2nc(-c3ccc(Oc4cccc(OCC5CC5)c4)nc3)oc2c1 (centres unmarked) [Example 99, methyl (1-(2-(6-(3-(cyclopropylmethoxy)phenoxy)pyridin-3-yl)-1,3-benzoxazol-6-yl)ethyl)carbamate] | 26 |  |
| 94 |  | CNC(=O)NC(C)c1ccc2nc(-c3ccc(Oc4cccc(OCC5CC5)c4)nc3)oc2c1 (centres unmarked) [Example 100, 1-(1-(2-(6-(3-(cyclopropylmethoxy)phenoxy)pyridin-3-yl)-1,3-benzoxazol-6-yl)ethyl)-3-methylurea] | 28 |  |
| 96 |  | CC(NC(=O)N(C)C)c1ccc2nc(-c3ccc(Oc4cccc(OCC5CC5)c4)nc3)oc2c1 (centres unmarked) [Example 101, 3-(1-(2-(6-(3-(cyclopropylmethoxy)phenoxy)pyridin-3-yl)-1,3-benzoxazol-6-yl)ethyl)-1,1-dimethylurea] | 30 |  |
| 94 |  | CCCn1cc(Oc2ccc(-c3nc4ccc(C(C)NC(C)=O)cc4o3)cn2)ccc1=O (centres unmarked) [Example 102, N-(1-(2-(6-((6-oxo-1-propyl-1,6-dihydropyridin-3-yl)oxy)pyridin-3-yl)-1,3-benzoxazol-6-yl)ethyl)acetamide] | 30 |  |
| 100 |  | CC(=O)NC(C)c1cc2cc(-c3cnc(Oc4cccc(OCC5CC5)c4)cn3)ccc2o1 (centres unmarked) [Example 103, N-(1-(5-(5-(3-(cyclopropylmethoxy)phenoxy)pyrazin-2-yl)-1-benzofuran-2-yl)ethyl)acetamide] | 29 |  |

The remaining lines, values behind:

| SMILES | inhibition at 10 µM (human ACC1) [%] | ACC1 inhibitory rate (%) at 10 μM (human ACC1; 10 µM) [%] | inhibition at 10 µM (HCT116 cells) [%] | HCT116 cell proliferation inhibitory rate (%) at 10 μM (HCT116 cells) [%] |
| --- | --- | --- | --- | --- |
| CC(=O)NC(C)c1ccc2cc(-c3ccc(Oc4cccc(OC[C@@H]5CC5(F)F)c4)nc3)oc2c1 (stereo partly drawn) [Example 68, N-(1-(2-(6-(3-(((1S)-2,2-difluorocyclopropyl)methoxy)phenoxy)pyridin-3-yl)-1-benzofuran-6-yl)ethyl)acetamide] | 100 |  | 39 |  |
| CC(=O)NC(C)c1ccc2oc(-c3ccc(Oc4cccc(OCC5CC5)c4)nc3)nc2c1 (centres unmarked) [Example 71, N-(1-(2-(6-(3-(cyclopropylmethoxy)phenoxy)pyridin-3-yl)-1,3-benzoxazol-5-yl)ethyl)acetamide] | 95 |  | 41 |  |
| CC(=O)NC(C)c1ccc2sc(-c3ccc(Oc4cccc(OCC5CC5)c4)cc3)cc2c1 (centres unmarked) [Example 73, N-(1-(2-(4-(3-(cyclopropylmethoxy)phenoxy)phenyl)-1-benzothiophen-5-yl)ethyl)acetamide] | 90 |  | 28 |  |
| CC(=O)NC(C)c1ccc2sc(-c3ccc(Oc4cccc(OCC5CC5)c4)nc3)nc2c1 (centres unmarked) [Example 75, N-(1-(2-(6-(3-(cyclopropylmethoxy)phenoxy)pyridin-3-yl)-1,3-benzothiazol-5-yl)ethyl)acetamide] | 94 |  | 40 |  |
| CC(=O)NC(C)c1ccc2nc(-c3ccc(Oc4cccc(OC[C@@H]5CC5(F)F)c4)cn3)oc2c1 (stereo partly drawn) [Example 76, N-(1-(2-(5-(3-(((1S)-2,2-difluorocyclopropyl)methoxy)phenoxy)pyridin-2-yl)-1,3-benzoxazol-6-yl)ethyl)acetamide] | 99 |  | 45 |  |
| CC(=O)NC(C)c1ccc2nc(-c3ccc(Oc4cccc(OC[C@@H]5CC5(F)F)c4)nc3)oc2c1 (stereo partly drawn) [Example 80, N-(1-(2-(6-(3-(((1S)-2,2-difluorocyclopropyl)methoxy)phenoxy)pyridin-3-yl)-1,3-benzoxazol-6-yl)ethyl)acetamide] | 100 |  | 33 |  |
| CC(=O)NC(C)c1ccc2nc(-c3ccc(Oc4cc(OCC5CC5)ccn4)cc3)oc2c1 (centres unmarked) [Example 82, N-(1-(2-(4-((4-(cyclopropylmethoxy)pyridin-2-yl)oxy)phenyl)-1,3-benzoxazol-6-yl)ethyl)acetamide] | 98 |  | 40 |  |
| CC(=O)NC(C)c1ccc2cc(-c3ccc(Oc4cccc(OCC5CC5)c4)cc3)nn2c1 (centres unmarked) [Example 86, N-(1-(2-(4-(3-(cyclopropylmethoxy)phenoxy)phenyl)pyrazolo[1,5-a]pyridin-6-yl)ethyl)acetamide] | 95 |  | 34 |  |
| CC(=O)NC(C)c1ccc2nc(-c3ccc(Oc4cccc(OCC5CC5)c4)cc3)oc2c1F (centres unmarked) [Example 90, N-(1-(2-(4-(3-(cyclopropylmethoxy)phenoxy)phenyl)-7-fluoro-1,3-benzoxazol-6-yl)ethyl)acetamide] | 101 |  | 22 |  |
